From patent US10202368B2, “CXCR7 receptor modulators” (IDORSIA PHARMACEUTICALS LTD, priority 2014, dated 2019)

The molecules below were run against CXCR7 (Homo sapiens (Human), UniProt P25106) (assay: PathHunter CHO-K1 CXCR7 β-arrestin assay (agonistic activity)). Conditions: β-arrestin recruitment in PathHunter CHO-K1 CXCR7 β-arrestin cells, 90 minutes at 37° C., geometric mean values.
Type: cell-based
Experimental: The CXCI12 receptor and CXCR7 agonistic activities of the compounds of formula (I) are determined in accordance with the following experimental method.
The assay is using the PathHunter™ CHO-K1 CXCR7 β-arrestin cell line from DiscoverX. The system is based on the Enzyme Fragment Complementation Technology. Two complementing fragments of the β-galactosidase enzyme are expressed within stably transfected cells. The larger portion of β-gal, termed EA for Enzyme Acceptor, is fused to the C-terminus of b-arrestin 2. The smaller fragment, termed ProLink™ tag, is fused to CXCR7 at the C-terminus. Upon activation, b-arrestin is recruited which forces the interaction of ProLink and EA, allowing complementation of the two fragments of b-gal and the formation of a functional enzyme which is capable of hydrolysing the substrate and generating a chemiluminescent signal.
CHO-K1 CXCR7 β-arrestin cells are detached from culture dishes with a cell dissociation buffer (Invitrogen, #13151-014) and collected in growing medium (F12 HAMS 90% (v/v)/FCS 10% (v/v), Penicillin/streptomycin 1% (v/v)). 5000 cells per well (in 20 μl) are seeded in a 384 well plate (white-walled, clear bottom; BD Falcon #353274). The plate is incubated at 37° C./5% CO2 for 24 hours. Medium is then replaced by 20 μl OPTIMEM (Invitrogen #31985) for 3 to 4 hours. Test compounds are dissolved at 10 mM in DMSO and serially diluted in DMSO to 200× of the final concentration for dose response curves. Compounds are then diluted 1:33.3 in HBSS1X. 5 μl/well of HBSS1X/20 mM HEPES/0.2% BSA are added to the assay plate followed by addition of 5 μl/well of diluted compounds. CXCL12 (Peprotech #300-28A) may be used as a reference agonist. The plate is incubated for 90 minutes at 37° C. 12 μl of detection reagent (Path Hunter Detection Kit, DiscoveRx, #93-0001) is transferred to the assay plate and to the plate is incubated for 1 hour at room temperature. Luminescent signal is read in a microplate reader (FLUOstar Optima, bmg). The calculated EC50 values may fluctuate depending on the daily cellular assay performance. Fluctuations of this kind are known to those skilled in the art. Average EC50 values from several measurements are given as geometric mean values.

CXCR7, sequence (P25106 whole entry): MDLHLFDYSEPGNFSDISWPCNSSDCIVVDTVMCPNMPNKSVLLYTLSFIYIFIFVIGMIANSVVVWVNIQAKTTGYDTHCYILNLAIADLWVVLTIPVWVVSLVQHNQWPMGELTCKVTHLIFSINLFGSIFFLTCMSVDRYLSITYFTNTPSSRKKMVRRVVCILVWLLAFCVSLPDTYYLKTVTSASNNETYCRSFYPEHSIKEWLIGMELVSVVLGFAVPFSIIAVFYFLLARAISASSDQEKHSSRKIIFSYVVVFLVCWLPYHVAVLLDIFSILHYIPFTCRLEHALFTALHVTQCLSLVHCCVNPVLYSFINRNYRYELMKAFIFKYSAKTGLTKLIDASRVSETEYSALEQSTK
CXCR7, sequence (P32121 whole entry partner): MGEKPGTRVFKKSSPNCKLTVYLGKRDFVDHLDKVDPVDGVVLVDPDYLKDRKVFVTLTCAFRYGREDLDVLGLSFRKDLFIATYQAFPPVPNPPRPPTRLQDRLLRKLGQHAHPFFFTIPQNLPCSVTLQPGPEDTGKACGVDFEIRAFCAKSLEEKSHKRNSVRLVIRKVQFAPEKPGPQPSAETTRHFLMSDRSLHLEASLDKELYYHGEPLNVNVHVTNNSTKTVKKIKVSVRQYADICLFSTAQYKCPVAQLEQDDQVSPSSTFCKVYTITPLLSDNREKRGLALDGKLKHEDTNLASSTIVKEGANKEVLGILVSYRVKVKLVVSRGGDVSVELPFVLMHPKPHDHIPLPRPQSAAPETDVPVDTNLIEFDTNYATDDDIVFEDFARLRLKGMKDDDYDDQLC

| Molecule | EC50 [nM] |
| --- | --- |
| 2-(4-Cyclopropylmethyl-1-methyl-2,3,4,5-tetrahydro-1H-benzo[e][1,4]diazepin-9-ylamino)-N-(2-morpholin-4-yl-ethyl)-N-(3-trifluoromethyl-pyridin-2-ylmethyl)-acetamide [Example 55] | 10 |
| CC(C)CN1CCOc2c(cccc2NCC(=O)N(CCN(C)C)Cc2ccccc2C(F)(F)F)C1 [Example 1, N-(2-Dimethylamino-ethyl)-2-(4-isobutyl-2,3,4,5-tetrahydro-benzo[f][1,4]oxazepin-9-ylamino)-N-(2-trifluoromethyl-benzyl)-acetamide] | 8 |
| CC(C)CN1CCOc2c(cccc2NCC(=O)N(CCN(C)C)Cc2ncccc2C(F)(F)F)C1 [Example 2, N-(2-Dimethylamino-ethyl)-2-(4-isobutyl-2,3,4,5-tetrahydro-benzo[f][1,4]oxazepin-9-ylamino)-N-(3-trifluoromethyl-pyridin-2-ylmethyl)-acetamide] | 3 |
| CC(C)CN1CCOc2c(cccc2NCC(=O)N(CCN(C)C)Cc2ncccc2Cl)C1 [Example 3, N-(3-Chloro-pyridin-2-ylmethyl)-N-(2-dimethylamino-ethyl)-2-(4-isobutyl-2,3,4,5-tetrahydro-benzo[f][1,4]oxazepin-9-ylamino)-acetamide] | 9 |
| CCN1CCOc2c(cccc2NCC(=O)N(CCN(C)C)Cc2ncccc2Cl)C1 [Example 4, N-(3-Chloro-pyridin-2-ylmethyl)-N-(2-dimethylamino-ethyl)-2-(4-ethyl-2,3,4,5-tetrahydro-benzo[f][1,4]oxazepin-9-ylamino)-acetamide] | 24 |
| CCN1CCOc2c(cccc2NCC(=O)N(CCN(C)C)Cc2ccccc2C(F)(F)F)C1 [Example 5, N-(2-Dimethylamino-ethyl)-2-(4-ethyl-2,3,4,5-tetrahydro-benzo[f][1,4]oxazepin-9-ylamino)-N-(2-trifluoromethyl-benzyl)-acetamide] | 7 |
| CCCN1CCOc2c(cccc2NCC(=O)N(CCN(C)C)Cc2ncccc2Cl)C1 [Example 6, N-(3-Chloro-pyridin-2-ylmethyl)-N-(2-dimethylamino-ethyl)-2-(4-propyl-2,3,4,5-tetrahydro-benzo[f][1,4]oxazepin-9-ylamino)-acetamide] | 19 |
| CCCN1CCOc2c(cccc2NCC(=O)N(CCN(C)C)Cc2ccccc2C(F)(F)F)C1 [Example 7, N-(2-Dimethylamino-ethyl)-2-(4-propyl-2,3,4,5-tetrahydro-benzo[f][1,4]oxazepin-9-ylamino)-N-(2-trifluoromethyl-benzyl)-acetamide] | 4 |
| CC(C)CN1CCOc2c(cccc2NCC(=O)N(CCN(C)C)Cc2cccc(Br)c2)C1 [Example 8, N-(3-Bromo-benzyl)-N-(2-dimethylamino-ethyl)-2-(4-isobutyl-2,3,4,5-tetrahydro-benzo[f][1,4]oxazepin-9-ylamino)-acetamide] | 36 |
| COc1ccnc(CN(CCN(C)C)C(=O)CNc2cccc3c2OCCN(CC(C)C)C3)c1 [Example 9, N-(2-Dimethylamino-ethyl)-2-(4-isobutyl-2,3,4,5-tetrahydro-benzo[f][1,4]oxazepin-9-ylamino)-N-(4-methoxy-pyridin-2-ylmethyl)-acetamide] | 200 |
| CC(C)CN1CCOc2c(cccc2NCC(=O)N(CCN(C)C2CC2)Cc2ccccc2C(F)(F)F)C1 [Example 10, N-[2-(Cyclopropyl-methyl-amino)-ethyl]-2-(4-isobutyl-2,3,4,5-tetrahydro-benzo[f][1,4]oxazepin-9-ylamino)-N-(2-trifluoromethyl-benzyl)-acetamide] | 58 |
| CC(C)CN1CCOc2c(cccc2NCC(=O)N(CCN2CCCC2=O)Cc2ccccc2C(F)(F)F)C1 [Example 11, 2-(4-Isobutyl-2,3,4,5-tetrahydro-benzo[f][1,4]oxazepin-9-ylamino)-N-[2-(2-oxo-pyrrolidin-1-yl)-ethyl]-N-(2-trifluoromethyl-benzyl)-acetamide] | 190 |
| CC(C)CN1CCOc2c(cccc2NCC(=O)N(CCN2CCCC2)Cc2ccc(F)cc2F)C1 [Example 12, N-(2,4-Difluoro-benzyl)-2-(4-isobutyl-2,3,4,5-tetrahydro-benzo[f][1,4]oxazepin-9-ylamino)-N-(2-pyrrolidin-1-yl-ethyl)-acetamide] | 14 |
| CC(C)CN1CCOc2c(cccc2NCC(=O)N(CCN2CCC(F)(F)CC2)Cc2ncccc2Cl)C1 [Example 13, N-(3-Chloro-pyridin-2-ylmethyl)-N-[2-(4,4-difluoro-piperidin-1-yl)-ethyl]-2-(4-isobutyl-2,3,4,5-tetrahydro-benzo[f][1,4]oxazepin-9-ylamino)-acetamide] | 88 |
| Cc1ccnc(CN(CCN(C)C)C(=O)CNc2cccc3c2OCCN(CC(C)C)C3)c1 [Example 14, N-(2-Dimethylamino-ethyl)-2-(4-isobutyl-2,3,4,5-tetrahydro-benzo[f][1,4]oxazepin-9-ylamino)-N-(4-methyl-pyridin-2-ylmethyl)-acetamide] | 76 |
| CC(C)CN1CCOc2c(cccc2NCC(=O)N(CCN2CCCC2)Cc2ccccc2Cl)C1 [Example 15, N-(2-Chloro-benzyl)-2-(4-isobutyl-2,3,4,5-tetrahydro-benzo[f][1,4]oxazepin-9-ylamino)-N-(2-pyrrolidin-1-yl-ethyl)-acetamide] | 11 |
| CC(C)CN1CCOc2c(cccc2NCC(=O)N(CCN2CCOCC2)Cc2ccccc2C(F)(F)F)C1 [Example 16, 2-(4-Isobutyl-2,3,4,5-tetrahydro-benzo[f][1,4]oxazepin-9-ylamino)-N-(2-morpholin-4-yl-ethyl)-N-(2-trifluoromethyl-benzyl)-acetamide] | 74 |
| CC(C)CN1CCOc2c(cccc2NCC(=O)N(CCN(C)C)Cc2ccc(F)cc2C(F)(F)F)C1 [Example 17, N-(2-Dimethylamino-ethyl)-N-(4-fluoro-2-trifluoromethyl-benzyl)-2-(4-isobutyl-2,3,4,5-tetrahydro-benzo[f][1,4]oxazepin-9-ylamino)-acetamide] | 59 |
| CC(C)CN1CCOc2c(cccc2NCC(=O)N(CCN(C)C)Cc2cccc(C(F)(F)F)c2)C1 [Example 18, N-(2-Dimethylamino-ethyl)-2-(4-isobutyl-2,3,4,5-tetrahydro-benzo[f][1,4]oxazepin-9-ylamino)-N-(3-trifluoromethyl-benzyl)-acetamide] | 53 |
| CC(C)CN1CCOc2c(cccc2NCC(=O)N(CCN(C)C)Cc2c(F)cccc2F)C1 [Example 19, N-(2,6-Difluoro-benzyl)-N-(2-dimethylamino-ethyl)-2-(4-isobutyl-2,3,4,5-tetrahydro-benzo[f][1,4]oxazepin-9-ylamino)-acetamide] | 12 |
| CC(=O)N1CCOc2c(cccc2NCC(=O)N(CCN(C)C)Cc2ccccc2C(F)(F)F)C1 [Example 20, 2-(4-Acetyl-2,3,4,5-tetrahydro-benzo[f][1,4]oxazepin-9-ylamino)-N-(2-dimethylamino-ethyl)-N-(2-trifluoromethyl-benzyl)-acetamide] | 73 |
| CCN1CCNc2c(cccc2NCC(=O)N(CCN(C)C)Cc2ccccc2C(F)(F)F)C1 [Example 21, N-(2-(dimethylamino)ethyl)-2-((4-ethyl-2,3,4,5-tetrahydro-1H-benzo[e][1,4]diazepin-9-yl)amino)-N-(2-(trifluoromethyl)benzyl)acetamide] | 6 |
| CN(C)CCN(Cc1ccccc1C(F)(F)F)C(=O)CNc1cccc2c1CN(CC1CC1)CCO2 [Example 22, 2-(4-Cyclopropylmethyl-2,3,4,5-tetrahydro-benzo[f][1,4]oxazepin-6-ylamino)-N-(2-dimethylamino-ethyl)-N-(2-trifluoromethyl-benzyl)-acetamide] | 4 |
| CN(C)CCN(Cc1ccccc1C(F)(F)F)C(=O)COc1cccc2c1CCN(CC1CC1)CC2 [Example 23, 2-(3-Cyclopropylmethyl-2,3,4,5-tetrahydro-1H-benzo[d]azepin-6-yloxy)-N-(2-dimethylamino-ethyl)-N-(2-trifluoromethyl-benzyl)-acetamide] | 1 |
| COCC(=O)N1CCc2cccc(OCC(=O)N(CCN(C)C)Cc3ccccc3C(F)(F)F)c2CC1 [Example 24, N-(2-Dimethylamino-ethyl)-2-[3-(2-methoxy-acetyl)-2,3,4,5-tetrahydro-1H-benzo[d]azepin-6-yloxy]-N-(2-trifluoromethyl-benzyl)-acetamide] | 3 |
| CC(=O)N1CCc2cccc(OCC(=O)N(CCN(C)C)Cc3ccccc3C(F)(F)F)c2CC1 [Example 25, 2-(3-Acetyl-2,3,4,5-tetrahydro-1H-benzo[d]azepin-6-yloxy)-N-(2-dimethylamino-ethyl)-N-(2-trifluoromethyl-benzyl)-acetamide] | 3 |
